PMC7802075 (ACS Infectious Diseases, 2020)
Where a name gives a salt, the structure may show the parent alone.

What follows are compounds tested against T1, LmjIPCS (inositol phosphorylceramide synthase from L. major) (Leishmania major, UniProt E9AFX2) (assay: biochemical). Conditions: not given.
T1 sequence (E9AFX2 1-338): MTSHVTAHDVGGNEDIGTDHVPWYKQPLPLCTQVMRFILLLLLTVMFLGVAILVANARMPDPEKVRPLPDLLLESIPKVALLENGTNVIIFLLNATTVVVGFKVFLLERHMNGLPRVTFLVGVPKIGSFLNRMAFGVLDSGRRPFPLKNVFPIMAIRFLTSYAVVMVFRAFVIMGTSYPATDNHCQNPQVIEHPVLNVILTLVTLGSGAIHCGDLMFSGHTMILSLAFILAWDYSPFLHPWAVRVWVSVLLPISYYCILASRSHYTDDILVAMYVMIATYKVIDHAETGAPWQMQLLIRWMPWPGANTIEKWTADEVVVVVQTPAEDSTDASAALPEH
Assay type: biochemical
Design: inhibition: dose or concentration left out as unconfirmed

Row | Structure (SMILES) | 20mM inhibition LmjIPCS [%]
1 | CCOC(=O)C1=C(C)NC(C)=C(C(=O)OC)C1c1cccc([N+](=O)[O-])c1 (stereo not drawn) [NITRENDIPINE] | 39
2 | CCN(CC)Cc1cc(Nc2ccnc3cc(Cl)ccc23)ccc1O [AMODIAQUINE] | 59
3 | CN(C)[C@@H]1C(O)=C(C(N)=O)C(=O)[C@@]2(O)C(O)=C3C(=O)c4c(O)ccc(Cl)c4[C@@](C)(O)[C@H]3C[C@@H]12 [CHLORTETRACYCLINE] | 56
4 | Cn1cnc([N+](=O)[O-])c1Sc1ncnc2nc[nH]c12 [AZATHIOPRINE] | 39
5 | CC(CCc1ccccc1)NCC(O)c1ccc(O)c(C(N)=O)c1 (stereo not drawn) [LABETALOL] | 50
6 | CC1=C(C(=O)O)N2C(=O)[C@@H](NC(=O)[C@H](N)c3ccc(O)cc3)[C@H]2SC1 [CEFADROXIL] | 37
7 | COc1ccc2[nH]cc(CCN)c2c1 [MEXAMINE] | 25
8 | CC(C[N+](C)(C)C)OC(N)=O (stereo not drawn) [BETHANECHOL] | 53
9 | N=C(N)N [GUANIDINE] | 20
10 | CC1(C)O[C@@H]2C[C@H]3[C@@H]4CCC5=CC(=O)C=C[C@]5(C)[C@@]4(F)[C@@H](O)C[C@]3(C)[C@]2(C(=O)CO)O1 [TRIAMCINOLONE ACETONIDE] | 37
11 | N[C@H](C(=O)O)[C@@H]1CC(Cl)=NO1 [ACIVICIN] | 39
12 | C[C@@H]1C[C@H]2[C@@H]3CCC4=CC(=O)C=C[C@]4(C)[C@@]3(F)[C@@H](O)C[C@]2(C)[C@@]1(O)C(=O)CO [DEXAMETHASONE] | 44
13 | NCCCCCC(=O)O [6-AMINOCAPROIC ACID] | 43
14 | CN1[C@@H](CC(=O)c2ccccc2)CCC[C@H]1C[C@H](O)c1ccccc1 [LOBELINE] | 38
15 | N=C(N)N/N=C/c1c(Cl)cccc1Cl [GUANABENZ ACETATE] | 55

Same assay, conditions: NINDS set screen, single concentration printed as 20mM

Row | Structure (SMILES) | 20mM inhibition LmjIPCS [%]
16 | CC(=O)[C@H]1CC[C@H]2[C@@H]3CC=C4C[C@@H](O)CC[C@]4(C)[C@H]3CC[C@]12C [PREGNENOLONE] | 52
17 | CCOC(=O)c1ccc(N)cc1 [BENZOCAINE] | 46
18 | CCCCCCc1ccc(O)cc1O [HEXYLRESORCINOL] | 47
19 | N[C@@H]1C[C@H]1c1ccccc1 (racemic) [TRANYLCYPROMINE] | 49
20 | CCCCC(CC)CNC(=N)NC(=N)NCCCCCCNC(=N)NC(=N)NCC(CC)CCCC (stereo not drawn) [ALEXIDINE] | 47
21 | C=C[C@@]1(C)CC(=O)[C@]2(O)[C@@]3(C)[C@@H](O)CCC(C)(C)[C@@H]3[C@H](O)[C@H](OC(C)=O)[C@@]2(C)O1 [COLFORSIN] | 51
22 | C#CCCCCCCCCCCCC(=O)CC(O)COC(C)=O (stereo not drawn) [AVOCADYNONE ACETATE] | 67

Same assay, conditions: NINDS set screen; read-out: inhibition LmjIPCS

Row | Structure (SMILES) | inhibition [%]
23 | CCOc1ccc(Cc2nccc3cc(OCC)c(OCC)cc23)cc1OCC [ETHAVERINE] | -7
24 | [H]/N=C(\N/C(=N/[H])Nc1ccc(Cl)cc1)NC(C)C [CHLOROGUANIDE] | 28
25 | CC(C)c1nc(N(C)S(C)(=O)=O)nc(-c2ccc(F)cc2)c1/C=C/[C@@H](O)C[C@@H](O)CC(=O)O [ROSUVASTATIN] | 12
26 | CC1=C(/C=C/C(C)=C/C=C/C(C)=C/CO)C(C)(C)CCC1 [RETINOL] | 21
27 | O=C1CCc2cc(OCCCCc3nnnn3C3CCCCC3)ccc2N1 [CILOSTAZOL] | 14
28 | Nc1ccc(S(=O)(=O)NC(=O)c2ccccc2)cc1 [SULFABENZAMIDE] | -6
29 | Cn1cc[nH]c1=S [METHIMAZOLE] | 13

Same assay, conditions: read-out: 20mM inhibition LmjIPCS

Row | Structure (SMILES) | inhibition at 20000 µM [%]
30 | CN(C)c1nc(N(C)C)nc(N(C)C)n1 [ALTRETAMINE] | 4
31 | CC(=O)OC/C=C(C)/C=C/C=C(C)/C=C/C1=C(C)CCCC1(C)C [RETINYL ACETATE] | 9
32 | NC(Cc1cc(I)c(Oc2cc(I)c(O)c(I)c2)c(I)c1)C(=O)O (stereo not drawn) [THYROXINE] | 12
33 | NCc1ccc(S(N)(=O)=O)cc1 [MAFENIDE] | 11
34 | N#C/C(=C\c1cccc(O)c1)C(=O)O [alpha-CYANO-3-HYDROXYCINNAMIC ACID] | 8
35 | CC(=O)NC(C(=O)O)C(C)(C)SN=O (stereo not drawn) | 9
36 | CN1[C@@H]2C[C@@H](OC(=O)[C@H](CO)c3ccccc3)C[C@H]1[C@@H]1O[C@@H]12 [SCOPOLAMINE] | -2.65
37 | Cc1ccc(C(=O)c2ccc(CC(=O)O)n2C)cc1 [TOLMETIN] | 4
38 | COc1cc([C@@H]2c3cc4c(cc3[C@H](O)[C@H]3COC(=O)[C@@H]23)OCO4)cc(OC)c1OC [PICROPODOPHYLLOTOXIN] | 7.47
39 | NC1(C(=O)O)CCCC1 [CYCLOLEUCINE] | 12
40 | NCCCCNCCCN [SPERMIDINE] | 12
41 | CNC(=O)Oc1ccc2c(c1)[C@]1(C)CCN(C)[C@@H]1N2C [PHYSOSTIGMINE] | 15
42 | C#C[C@]1(O)CC[C@H]2[C@@H]3CCC4=CC(=O)CC[C@]4(C)[C@H]3CC[C@@]21C [ETHISTERONE] | 2.43
43 | Cc1ncc([N+](=O)[O-])n1CC(C)O (stereo not drawn) [SECNIDAZOLE] | 12
44 | C[n+]1ccccc1/C=N/O [PRALIDOXIME MESYLATE] | 9
45 | NCCc1c[nH]cn1 [HISTAMINE] | 4.39
46 | CN(C)[C@@H]1C(O)=C(C(N)=O)C(=O)[C@@]2(O)C(O)=C3C(=O)c4c(O)ccc(Cl)c4[C@@H](O)[C@H]3C[C@@H]12 [DEMECLOCYCLINE] | -2
47 | O=C1NS(=O)(=O)c2ccccc21 [SACCHARIN] | 3.67
48 | COc1ccccc1OCC(O)COC(N)=O (stereo not drawn) [METHOCARBAMOL] | 13
49 | C[C@H]1CC[C@]2(NC1)O[C@H]1C[C@H]3[C@@H]4CC[C@H]5C[C@@H](O[C@@H]6O[C@H](CO)[C@H](O[C@@H]7O[C@H](CO)[C@@H](O)[C@H](O[C@@H]8OC[C@@H](O)[C@H](O)[C@H]8O)[C@H]7O[C@@H]7O[C@H](CO)[C@@H](O)[C@H](O)[C@H]7O)[C@H](O)[C@H]6O)CC[C@]5(C)[C@H]4CC[C@]3(C)[C@H]1[C@@H]2C [TOMATINE] | 12
50 | CCC1(c2ccccc2)C(=O)NCNC1=O [PRIMIDONE] | -1.2
51 | CNC(C)(C)Cc1ccccc1 [MEPHENTERMINE] | 22
52 | c1ccc2c(c1)CCCC2C1=NCCN1 (stereo not drawn) [TETRAHYDROZOLINE] | 8
53 | COc1ccccc1OCC(O)CO (stereo not drawn) [GUAIFENESIN] | -0.357
54 | O=C1C(Cl)=C(Cl)C(=O)C(Cl)=C1Cl [CHLORANIL] | 19
55 | C/C=C1\[C@H]2C=C(C)C[C@]1(N)c1ccc(=O)[nH]c1C2 [HUPERZINE A] | 24
56 | O=C(O)c1cc2cc(Cc3cccnc3)ccc2o1 [FUREGRELATE] | -16
57 | CCOc1ccc2ccccc2c1C(=O)N[C@@H]1C(=O)N2[C@@H]1SC(C)(C)[C@@H]2C(=O)O [NAFCILLIN] | 4.73
58 | [N-]=[N+]=CC(=O)OC[C@H](N)C(=O)O [AZASERINE] | 14
59 | CCOC(=O)[C@H](CCc1ccccc1)N[C@@H](C)C(=O)N1Cc2ccccc2C[C@H]1C(=O)O | 5.45

Same assay, conditions: read-out: inhibition LmjIPCS

Row | Structure (SMILES) | inhibition [%]
60 | CNC(=C[N+](=O)[O-])NCCSCc1ccc(CN(C)C)o1 [RANITIDINE] | 1.29
61 | O=c1[nH]c2cc(Cl)c(Cl)cc2[nH]c1=O [2,3-DIHYDROXY-6,7-DICHLOROQUINOXALINE] | 4
62 | CC(=O)N(O)CCCCCNC(=O)CCC(=O)N(O)CCCCCNC(=O)CCC(=O)N(O)CCCCCN [DEFEROXAMINe] | -4.52
63 | CCN(CC)C(=O)N1CCN(C)CC1 [DIETHYLCARBAMAZINE] | -3
64 | CNC(C)C1CCC(N)C(OC2C(N)CC(N)C(OC3OCC(C)(O)C(NC)C3O)C2O)O1 (stereo not drawn) [GENTAMICIN] | -1
65 | CC(C)Cn1c(=O)n(C)c(=O)c2[nH]cnc21 [ISOBUTYLMETHYLXANTHINE] | 14
66 | CC[N+](C)(C)Cc1ccccc1Br [BRETYLIUM] | 14
67 | COC(=O)[C@H]1[C@H]2C[C@H]3c4[nH]c5ccccc5c4CCN3C[C@H]2CC[C@@H]1O [RAUWOLSCINE] | 12
68 | c1coc(CNc2ncnc3[nH]cnc23)c1 [KINETIN] | 16
69 | Nc1ccn([C@@H]2O[C@H](CO)[C@@H](O)[C@@H]2O)c(=O)n1 [CYTARABINE] | -1.69
70 | C[C@@H]1C[C@H]2[C@@H]3CCC4=CC(=O)C=C[C@]4(C)[C@@]3(F)[C@@H](O)C[C@]2(C)[C@@]1(O)C(=O)CO [DEXAMETHASONE] | -4
71 | CN1Cc2c(N)cccc2C(c2ccccc2)C1 (stereo not drawn) [NOMIFENSINE] | 5
72 | Nc1nc2nc[nH]c2c(=S)[nH]1 [THIOGUANINE] | 6
73 | O=C(O)c1cc(/N=N/c2ccc(S(=O)(=O)Nc3ccccn3)cc2)ccc1O [SULFASALAZINE] | 1.8
74 | CN1C[C@H](CNC(=O)OCc2ccccc2)C[C@@H]2c3cccc4c3c(cn4C)C[C@H]21 [METERGOLINE] | 11
75 | CC(C)(Oc1ccc(CCNC(=O)c2ccc(Cl)cc2)cc1)C(=O)O [BEZAFIBRATE] | 11

Same assay, conditions: screening of NINDS set, sheet Screen 1; read-out: inhibition LmjIPCS

Row | Structure (SMILES) | inhibition [%]
76 | CCC(C(N)=O)c1ccccc1 (stereo not drawn) [FENBUTYRAMIDE] | 9
77 | CC1(C)S[C@@H]2[C@H](N3C(=O)[C@@H](c4ccccc4)NC3(C)C)C(=O)N2[C@H]1C(=O)O [HETACILLIN] | 2
78 | Cc1nc(C)c(Cl)c(O)c1Cl [CLOPIDOL] | 7
79 | CN(C)CCCO[C@@H]1[C@H]2OC(C)(C)O[C@H]2O[C@@H]1[C@H](O)CO [AMIPRILOSE] | 4
80 | COc1cc(OC)c2ccc(=O)oc2c1 [CITROPTEN] | 2.18

Same assay, conditions: single concentration 20mM as printed; screening of NINDS set, sheet Screen 1

Row | Structure (SMILES) | 20mM inhibition LmjIPCS [%]
81 | CC(=O)Oc1ccc2c(c1)CC[C@@H]1[C@@H]2CC[C@]2(C)[C@@H](OC(C)=O)CC[C@@H]12 [ESTRADIOL DIACETATE] | 1.59
